Reference: PubChem BioAssay AID248 (DTP/NCI, 2004)
Several values for one entry are separate records, joined by “and”; a condition that tells them apart may be missing. Equal values may be shown once. Toxic doses and inconclusive results are not listed. No stated cut-off is given here; in the data, active means T/C of 150% or more; inactive means T/C below 125%.

System: L1210 leukemia ip in BDF1 mice, survival T/C
Experiment: NCI In Vivo Anticancer Drug Screen. Data for tumor model L1210 Leukemia (intraperitoneal) in B6D2F1 (BDF1) mice
Settings: endpoint: mean survival time, higher = longer survival
Procedure, shortened: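 Survival endpoint. Drug-treated group vs vehicle group, expressed as T divided by C. Tumor passaged by transplantation.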

[1] = dose: 100.0 mg/kg/injection, schedule: Q01DX009 (ip), vehicle: saline with Tween-80
[2] = dose: 100.0 mg/kg/injection, schedule: Q04DX003 (ip), vehicle: saline with Tween-80
[3] = dose: 200.0 mg/kg/injection, schedule: Q01DX009 (ip), vehicle: saline with Tween-80
[4] = dose: 200.0 mg/kg/injection, schedule: Q04DX003 (ip), vehicle: saline with Tween-80
[5] = dose: 400.0 mg/kg/injection, schedule: Q01DX009 (ip), vehicle: saline with Tween-80
[6] = dose: 400.0 mg/kg/injection, schedule: Q04DX003 (ip), vehicle: saline with Tween-80
[7] = dose: 400.0 mg/kg/injection, schedule: Q01DX001 (ip), vehicle: saline with Tween-80
[8] = dose: 100.0 mg/kg/injection, schedule: Q01DX001 (ip), vehicle: Klucel (hydroxypropylcellulose) (HPC)
[9] = dose: 200.0 mg/kg/injection, schedule: Q01DX001 (ip), vehicle: Klucel (hydroxypropylcellulose) (HPC)
[10] = dose: 400.0 mg/kg/injection, schedule: Q01DX001 (ip), vehicle: Klucel (hydroxypropylcellulose) (HPC)
[11] = dose: 100.0 mg/kg/injection, schedule: Q01DX001 (ip), vehicle: saline
[12] = dose: 100.0 mg/kg/injection, schedule: Q01DX009 (ip), vehicle: Klucel (hydroxypropylcellulose) (HPC)
[13] = dose: 100.0 mg/kg/injection, schedule: Q01DX009 (ip), vehicle: saline
[14] = dose: 100.0 mg/kg/injection, schedule: Q04DX003 (ip), vehicle: saline
[15] = dose: 200.0 mg/kg/injection, schedule: Q01DX009 (ip), vehicle: saline
[16] = dose: 200.0 mg/kg/injection, schedule: Q04DX003 (ip), vehicle: saline
[17] = dose: 400.0 mg/kg/injection, schedule: Q01DX009 (ip), vehicle: saline
[18] = dose: 400.0 mg/kg/injection, schedule: Q04DX003 (ip), vehicle: saline
[19] = dose: 200.0 mg/kg/injection, schedule: Q04DX002 (ip), vehicle: Klucel (hydroxypropylcellulose) (HPC)
[20] = dose: 400.0 mg/kg/injection, schedule: Q04DX002 (ip), vehicle: Klucel (hydroxypropylcellulose) (HPC)
[21] = dose: 200.0 mg/kg/injection, schedule: Q01DX001 (ip), vehicle: saline
[22] = dose: 400.0 mg/kg/injection, schedule: Q01DX001 (ip), vehicle: saline
[23] = dose: 100.0 mg/kg/injection, schedule: Q04DX002 (ip), vehicle: Klucel (hydroxypropylcellulose) (HPC)

Measured: T/C

CC(=O)CCC(=O)O
inactive: dose: 1.56 mg/kg/injection, schedule: Q01DX Z (ip), vehicle: other 98 % of control | dose: 3.13 mg/kg/injection, schedule: Q01DX Z (ip), vehicle: other 96 % of control | dose: 6.25 mg/kg/injection, schedule: Q01DX Z (ip), vehicle: other 96 % of control | dose: 12.5 mg/kg/injection, schedule: Q01DX Z (ip), vehicle: other 95 % of control | dose: 25.0 mg/kg/injection, schedule: Q01DX Z (ip), vehicle: other 95 % of control | dose: 50.0 mg/kg/injection, schedule: Q01DX Z (ip), vehicle: other 98 % of control | dose: 100.0 mg/kg/injection, schedule: Q01DX Z (ip), vehicle: other 113 % of control | dose: 100.0 mg/kg/injection, schedule: Q04DX002 (ip), vehicle: saline 88 % of control | dose: 200.0 mg/kg/injection, schedule: Q01DX Z (ip), vehicle: other 96 % of control | dose: 200.0 mg/kg/injection, schedule: Q04DX002 (ip), vehicle: saline 100 % of control | dose: 400.0 mg/kg/injection, schedule: Q04DX002 (ip), vehicle: saline 118 % of control

COC1(c2ccc(C(F)(F)F)cc2)OC1(C)C (stereo unspecified)
inactive: [1] 98 % of control | [2] 96 % of control | [3] 100 % of control | [4] 102 % of control | [5] 104 % of control | [6] 102 % of control

Cn1c(=O)cc[nH]c1=O
inactive: dose: 100.0 mg/kg/injection, schedule: Q01DX001 (ip), vehicle: saline with Tween-80 95 % of control | dose: 200.0 mg/kg/injection, schedule: Q01DX001 (ip), vehicle: saline with Tween-80 98 % of control | [7] 106 % of control

COc1ccc(NC(C)=O)cc1
inactive: [8] 107 % of control | [9] 100 % of control | [10] 103 % of control

CCCN(CCC)CCCN(CCC)CCCCN(CCC)CCCN(CCC)CCC
inactive: [11] 98 % of control

O=P(Cc1ccccc1)(OCCCl)Oc1ccccc1 (stereo unspecified)
inactive: [12] 102 % of control | dose: 100.0 mg/kg/injection, schedule: Q04DX003 (ip), vehicle: Klucel (hydroxypropylcellulose) (HPC) 91 % of control | dose: 200.0 mg/kg/injection, schedule: Q01DX009 (ip), vehicle: Klucel (hydroxypropylcellulose) (HPC) 98 % of control | dose: 200.0 mg/kg/injection, schedule: Q04DX003 (ip), vehicle: Klucel (hydroxypropylcellulose) (HPC) 96 % of control | dose: 400.0 mg/kg/injection, schedule: Q01DX009 (ip), vehicle: Klucel (hydroxypropylcellulose) (HPC) 96 % of control | dose: 400.0 mg/kg/injection, schedule: Q04DX003 (ip), vehicle: Klucel (hydroxypropylcellulose) (HPC) 96 % of control

CCN1CCc2cc3c(cc2C1)OCO3
inactive: dose: 10.0 mg/kg/injection, schedule: Q01DX001 (ip), vehicle: carboxymethylcellulose (CMC) 98 % of control | dose: 20.0 mg/kg/injection, schedule: Q01DX001 (ip), vehicle: carboxymethylcellulose (CMC) 93 % of control | dose: 40.0 mg/kg/injection, schedule: Q01DX001 (ip), vehicle: carboxymethylcellulose (CMC) 94 % of control | dose: 80.0 mg/kg/injection, schedule: Q01DX001 (ip), vehicle: carboxymethylcellulose (CMC) 96 % of control

NNC(=O)CO
inactive: [13] 108 % of control | [14] 101 % of control | [15] 106 % of control | [16] 97 % of control | [17] 114 % of control | [18] 98 % of control

C[N+]1(C2CCC3CCC2C3O)CCOCC1 (stereo unspecified)
inactive: dose: 50.0 mg/kg/injection, schedule: Q01DX009 (ip), vehicle: saline 106 % of control and 124 % of control | [13] 100 % of control | [14] 103 % of control and 101 % of control | [15] 98 % of control | [16] 97 % of control and 105 % of control

CCCCCCCCCCCCCCCCCCNC(=O)Nc1nccs1
inactive: [12] 96 % of control | dose: 150.0 mg/kg/injection, schedule: Q01DX009 (ip), vehicle: Klucel (hydroxypropylcellulose) (HPC) 86 % of control | [19] 94 % of control | dose: 225.0 mg/kg/injection, schedule: Q01DX009 (ip), vehicle: Klucel (hydroxypropylcellulose) (HPC) 91 % of control | dose: 335.0 mg/kg/injection, schedule: Q01DX009 (ip), vehicle: Klucel (hydroxypropylcellulose) (HPC) 96 % of control | [20] 87 % of control

OC1CCc2c(Cl)sc(Cl)c21 (stereo unspecified)
inactive: [7] 98 % of control

CCSC(C(O)C(O)C(O)C(O)CO)n1cnc2c(=S)nc[nH]c21 (stereo unspecified)
inactive: [11] 105 % of control | [14] 96 % of control | [21] 105 % of control | [16] 100 % of control | [22] 103 % of control | [18] 96 % of control

C=C1C(=O)OC2C1C(OC(=O)/C(C)=C/COC(C)=O)CC1(CO1)C1C(O)C=C(C)C21 (stereo unspecified)
inactive: dose: 12.5 mg/kg/injection, schedule: Q01DX009 (ip), vehicle: alcohol 103 % of control | dose: 25.0 mg/kg/injection, schedule: Q01DX009 (ip), vehicle: alcohol 105 % of control | dose: 50.0 mg/kg/injection, schedule: Q01DX009 (ip), vehicle: alcohol 105 % of control and 107 % of control

COC(=O)c1ccccc1-n1cnc2ccccc2c1=O
inactive: [23] 101 % of control | [19] 101 % of control | [20] 93 % of control

O=C(Nc1ccc([N+](=O)[O-])cc1Cl)Sc1ccccc1O
inactive: [1] 104 % of control | [3] 104 % of control | [5] 86 % of control

CS(=O)(=O)c1ccc(Br)cc1
inactive: [1] 103 % of control | [2] 90 % of control | [3] 102 % of control | [4] 98 % of control | [5] 102 % of control | [6] 96 % of control

OC(c1ccccc1)(c1ccccc1)C1CCCCC1=C(c1ccccc1)c1ccccc1 (stereo unspecified)
inactive: [11] 88 % of control | [13] 86 % of control | [14] 96 % of control | [21] 93 % of control | [16] 94 % of control | [22] 89 % of control | [17] 86 % of control | [18] 96 % of control

Oc1ccccc1C=Nc1ccccc1N=Cc1ccccc1O
inactive: [8] 102 % of control | [9] 103 % of control | [10] 96 % of control

COc1cc2c(cc1OC)C1(CCBr)C3CC4C(=CCOC5CC(=O)N2C1C54)CN3C(=O)Cc1ccccc1 (stereo unspecified)
inactive: dose: 75.0 mg/kg/injection, schedule: Q01DX001 (ip), vehicle: saline 107 % of control

CCCCCCCCCCNC(=O)C[n+]1cccc(C(=O)N(CC)CC)c1
inactive: dose: 6.25 mg/kg/injection, schedule: Q04DX003 (ip), vehicle: saline 94 % of control | dose: 12.5 mg/kg/injection, schedule: Q04DX003 (ip), vehicle: saline 96 % of control | dose: 25.0 mg/kg/injection, schedule: Q04DX003 (ip), vehicle: saline 93 % of control

Cc1ccc(CNC(=O)Nc2ccccc2Cl)c(C)c1
inactive: [23] 105 % of control | [19] 97 % of control | [20] 97 % of control
